Where two headings read alike, the source gives them in different places.
Target: T1, chimeric human H3 receptor (Homo sapiens, UniProt Q9Y5N1, E19D)
T1 construct: made in house; host or cells: Sf9 insect cells (baculovirus infection); P2 membrane preparation
Test: Chimeric human H3 receptor GTP binding assay (agonist-stimulated GTP-gamma35S binding, Example 7)
Type: biochemical
Method in brief: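 Sf9 membranes co-expressing the chimeric receptor and heterotrimeric G-protein subunits, 35 μg protein per tube, in pH 7.4 Tris buffer with 10 μM GDP. Test compounds at 10^−10 to 10^−6 M with 1 μM histamine, 60 min at room temperature. Filter-bound GTP-gamma^35S read by scintillation; IC50 from non-linear regression of dose-response curves.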

[1] = Table II "Ki", symbol "*": Ki in the assay of Example 7, read-out: Ki
[2] = Table II, assay of Example 7, "*" in Ki, read-out: Ki
[3] = assay of Example 7, "*" in Ki of Table II, read-out: Ki
[4] = assay of Example 7, symbol * in column headed Ki of Table II, read-out: Ki
[5] = Table II, "*" in Ki, assay of Example 7, read-out: Ki

T1 sequence (Q9Y5N1 with tags, fused parts or gaps E19D): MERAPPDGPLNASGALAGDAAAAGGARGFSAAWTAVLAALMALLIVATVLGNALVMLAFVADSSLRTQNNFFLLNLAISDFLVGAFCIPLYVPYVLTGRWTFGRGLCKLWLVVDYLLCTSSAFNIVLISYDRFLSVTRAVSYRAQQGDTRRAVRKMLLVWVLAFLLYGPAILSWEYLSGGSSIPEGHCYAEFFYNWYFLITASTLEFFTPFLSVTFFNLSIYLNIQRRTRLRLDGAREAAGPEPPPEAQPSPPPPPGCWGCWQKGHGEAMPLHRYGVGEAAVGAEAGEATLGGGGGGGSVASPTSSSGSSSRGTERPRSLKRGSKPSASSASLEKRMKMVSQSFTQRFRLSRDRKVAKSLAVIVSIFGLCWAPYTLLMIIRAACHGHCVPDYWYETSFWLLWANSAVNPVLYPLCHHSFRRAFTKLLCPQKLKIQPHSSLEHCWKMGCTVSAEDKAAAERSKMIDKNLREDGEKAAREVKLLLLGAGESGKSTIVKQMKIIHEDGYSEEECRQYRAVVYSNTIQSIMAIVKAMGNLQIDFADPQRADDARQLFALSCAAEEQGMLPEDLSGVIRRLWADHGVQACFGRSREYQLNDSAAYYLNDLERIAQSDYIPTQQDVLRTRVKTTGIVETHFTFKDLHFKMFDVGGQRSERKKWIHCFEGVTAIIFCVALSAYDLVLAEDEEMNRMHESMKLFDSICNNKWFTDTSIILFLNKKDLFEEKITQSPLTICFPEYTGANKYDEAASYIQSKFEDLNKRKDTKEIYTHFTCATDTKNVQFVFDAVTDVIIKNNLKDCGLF

With COc1ccc(N2CCN(CC(=O)N3CCN(C4CCCC4)CC3)CC2)cc1OC [Compound 836, 1-cyclopentyl-4-{[4-(3,4-dimethoxyphenyl)piperazin-1-yl]acetyl}piperazine] the Ki [1] was under 1000 nM.

O=C(CN1CCN(c2ccc(-c3cccc(F)c3F)nn2)CC1)N1CCN(C2CCC2)CC1 [Compound 1053, 3-{4-[2-(4-cyclobutylpiperazin-1-yl)-2-oxoethyl]piperazin-1-yl}-6-(2,3-difluorophenyl)pyridazine] was tested, and the Ki [2] was under 1000 nM.

Work on O=C(CN1CCN(c2ccc(F)cc2)CC1)N1CCN(C2CCC2)CC1 [Compound 775, 1-cyclobutyl-4-{[4-(4-fluorophenyl)piperazin-1-yl]acetyl}piperazine] yielded a Ki [1] of under 1000 nM.

Compound O=C(NCC(F)(F)F)c1ccc(N2CCN(CC(=O)N3CCN(C4CCC4)CC3)CC2)nc1 [Compound 1180, 6-{4-[2-(4-cyclobutylpiperazin-1-yl)-2-oxoethyl]piperazin-1-yl}-N-(2,2,2-trifluoroethyl) nicotinamide] has a Ki [3] of under 1000 nM.

Cc1ccc(F)c(-c2cnc(N3CCN(CC(=O)N4CCN(C5CCC5)CC4)CC3)cn2)c1 [Compound 921, 2-{4-[2-(4-cyclobutylpiperazin-1-yl)-2-oxoethyl]piperazin-1-yl}-5-(2-fluoro-5-methylphenyl)pyrazine] showed a Ki [1] of under 1000 nM.

Compound O=C(CN1CCN(c2cccc(Cl)c2)CC1)N1CCN(C2CCC2)CC1 [Compound 301, 1-(3-chlorophenyl)-4-[2-(4-cyclobutylpiperazin-1-yl)-2-oxoethyl]piperazine] has a Ki [4] of under 1000 nM.

For COc1ccc(Br)cc1CC(=O)N1CCN(CC(=O)N2CCN(C3CCC3)CC2)CC1 [Compound 409, 1-[(5-bromo-2-methoxyphenyl)acetyl]-4-[2-(4-cyclobutylpiperazin-1-yl)-2-oxoethyl]piperazine], the Ki [4] was under 1000 nM.

In the case of CCC(C)CNC(=O)c1ccc(N2CCN(CC(=O)N3CCN(C4CCC4)CC3)CC2)nc1 (stereo not drawn) [Compound 1173, 6-{4-[2-(4-cyclobutylpiperazin-1-yl)-2-oxoethyl]piperazin-1-yl}-N-(2-methylbutyl)nicotinamide], the Ki [3] is reported as under 1000 nM.

CN(C(=O)c1ccc(N2CCN(CC(=O)N3CCN(C4CCC4)CC3)CC2)cc1)C1CCCCC1 [Compound 1128, 4-{4-[2-(4-cyclobutylpiperazin-1-yl)-2-oxoethyl]piperazin-1-yl}-N-cyclohexyl-N-methylbenzamide] showed a Ki [2] of under 1000 nM.

CCCOc1ccc(-c2ccc(N3CCN(CC(=O)N4CCN(C5CCC5)CC4)CC3)nn2)cc1 [Compound 1037, 3-{4-[2-(4-cyclobutylpiperazin-1-yl)-2-oxoethyl]piperazin-1-yl}-6-(4-propoxyphenyl) pyridazine] gave a Ki [2] of under 1000 nM.

O=C(NCC(F)(F)F)c1ccc(N2CCN(CC(=O)N3CCN(C4CCC4)CC3)CC2)cc1 [Compound 1137, 4-{4-[2-(4-cyclobutylpiperazin-1-yl)-2-oxoethyl]piperazin-1-yl}-N-(2,2,2-trifluoroethyl)benzamide] showed a Ki [2] of under 1000 nM.

For O=C(CN1CCN(c2cccc(C(=O)N3CC=CCC3)c2)CC1)N1CCN(C2CCC2)CC1 [Compound 583], the Ki [5] was under 1000 nM.

O=C(CC1CCCC1)NC1CCN(CC(=O)N2CCN(C3CCC3)CC2)C1 (stereo not drawn) [Compound 1248, N-{1-[2-(4-cyclobutylpiperazin-1-yl)-2-oxoethyl]pyrrolidin-3-yl}-2-cyclopentylacetamide] gave a Ki [3] of under 1000 nM.

Compound CCCC(C)NC(=O)c1ccc(N2CCN(CC(=O)N3CCN(C4CCC4)CC3)CC2)nc1 (stereo not drawn) [Compound 1184, 6-{4-[2-(4-cyclobutylpiperazin-1-yl)-2-oxoethyl]piperazin-1-yl}-N-(1-methylbutyl)nicotinamide] has a Ki [3] of under 1000 nM.

Work on CNC(=O)c1ccc(N2CCN(CC(=O)N3CCN(C4CCC4)CC3)CC2)cc1 [Compound 1122, 4-{1-[2-(4-cyclobutylpiperazin-1-yl)-2-oxoethyl]piperazin-1-yl}-N-methylbenzamide] yielded a Ki [2] of under 1000 nM.

O=C(NC1CCN(CC(=O)N2CCN(C3CCC3)CC2)C1)c1ccccc1 (stereo not drawn) [Compound 1253, N-{1-[2-(4-cyclobutylpiperazin-1-yl)-2-oxoethyl]pyrrolidin-3-yl}benzamide] was tested, and the Ki [3] was under 1000 nM.

Compound CCC(C)N1CCN(C(=O)CN2CCN(c3c(C)cccc3C)CC2)CC1 (stereo not drawn) [Compound 865, 1-sec-butyl-4-{[4-(2,6-dimethylphenyl)piperazin-1-yl]acetyl}piperazine] has a Ki [1] of under 1000 nM.

Compound COc1ccc(N2CCN(CC(=O)N3CCN(C4CCCCC4)CC3)CC2)cc1OC [Compound 816, 1-cyclohexyl-4-{[4-(3,4-dimethoxyphenyl)piperazin-1-yl]acetyl}piperazine] has a Ki [1] of under 1000 nM.

In the case of CCC(C)N1CCN(C(=O)CN2CCC(N3CCCCC3)CC2)CC1 (stereo not drawn) [Compound 447], the Ki ("*" in Ki of Table II, assay of Example 7, read-out: Ki) is reported as under 1000 nM.

Work on CCC(C)N1CCN(C(=O)CN2CCN(c3ccc(Cl)c(Cl)c3)CC2)CC1 (stereo not drawn) [Compound 869, 1-sec-butyl-4-{[4-(3,4-dichlorophenyl)piperazin-1-yl]acetyl}piperazine] yielded a Ki [1] of under 1000 nM.

Compound O=C(CN1CCN(c2ccc(-c3ccc(Cl)cc3Cl)nn2)CC1)N1CCN(C2CCC2)CC1 [Compound 1055, 3-{4-[2-(4-cyclobutylpiperazin-1-yl)-2-oxoethyl]piperazin-1-yl}-6-(2,4-dichlorophenyl)pyridazine] has a Ki [2] of under 1000 nM.

CCC(C)N1CCN(C(=O)CN2CCN(c3cc(Cl)cc(Cl)c3)CC2)CC1 (stereo not drawn) [Compound 872, 1-sec-butyl-4-{[4-(3,5-dichlorophenyl)piperazin-1-yl]acetyl}piperazine] was tested, and the Ki [1] was under 1000 nM.

Work on O=C(NC1CCCCC1)c1cccc(N2CCN(CC(=O)N3CCN(C4CCC4)CC3)CC2)c1 [Compound 1079, 3-{4-[2-(4-cyclobutylpiperazin-1-yl)-2-oxoethyl]piperazin-1-yl}-N-cyclohexylbenzamide] yielded a Ki [2] of under 1000 nM.

O=C(CN1CCN(c2ccc(-c3cccc(F)c3)nn2)CC1)N1CCN(C2CCC2)CC1 [Compound 1004, 3-{4-[2-(4-cyclobutylpiperazin-1-yl)-2-oxoethyl]piperazin-1-yl}-6-(3-fluorophenyl)pyridazine] gave a Ki [2] of under 1000 nM.

Work on CCC(C)N1CCN(C(=O)CN2CCN(c3ccc(F)c(C(F)(F)F)c3)CC2)CC1 (stereo not drawn) [Compound 856, 1-sec-butyl-4-({4-[4-fluoro-3-(trifluoromethyl)phenyl]piperazin-1-yl}acetyl)piperazine] yielded a Ki [1] of under 1000 nM.

CCCCNC(=O)c1ccc(N2CCN(CC(=O)N3CCN(C4CCC4)CC3)CC2)nc1 [Compound 1265, N-butyl-6-{4-[2-(4-cyclobutylpiperazin-1-yl)-2-oxoethyl]piperazin-1-yl}nicotinamide] showed a Ki [3] of under 1000 nM.

CC1CCCCN1C(=O)c1cccc(N2CCN(CC(=O)N3CCN(C4CCC4)CC3)CC2)c1 (stereo not drawn) [Compound 639, 1-cyclobutyl-4-[(4-{3-[(2-methylpiperidin-1-yl)carbonyl]phenyl}piperazin-1-yl)acetyl]piperazine] showed a Ki [5] of under 1000 nM.

CC(C)N1CCN(C(=O)CN2CCN(C(=O)C3CCCO3)CC2)CC1 (stereo not drawn) [Compound 852, 1-isopropyl-4-{[4-(tetrahydrofuran-2-ylcarbonyl)piperazin-1-yl]acetyl}piperazine] was tested, and the Ki [1] was under 1000 nM.

In the case of CC(=O)C1(c2ccccc2)CCN(CC(=O)N2CCN(C3CCC3)CC2)CC1 [Compound 478, 1-{1-[2-(4-cyclobutylpiperazin-1-yl)-2-oxoethyl]-4-phenylpiperidin-4-yl}ethanone], the Ki is reported as under 1000 nM.

Work on O=C(CN1CCN(c2cnc(-c3ccccc3)cn2)CC1)N1CCN(C2CCC2)CC1 [Compound 918, 2-{4-[2-(4-cyclobutylpiperazin-1-yl)-2-oxoethyl]piperazin-1-yl}-5-phenylpyrazine] yielded a Ki [1] of under 1000 nM.
